Reference: US20260007730A1, “HUMAN CTLA-4 PEPTIDE VACCINES AND USES THEREOF” (Ohio State Innovation Foundation, priority 2022, published 2026)
Where no end group is shown, it is not given here. [ ]: non-standard residue; d: D form.

What was measured:
Type in all cases: in vivo, BALB/c mice
4T1 breast cancer cells = experiment: CTLA-4 peptide vaccines in 4T1-BALB/c tumor model; conditions: for survival versus PBS group (Log-rank test): 4T1
Procedure: 6-8 weeks old BALB/c mice were vaccinated with MVF-CTLA-4 (59), MVF-CTLA-4 (75), MVF-CTLA-4 (92) or MVF-CTLA-4 (130) for 3 weeks interval. 0.1 mg peptide cancer vaccine mixed with ISA 720 (1:1) used per mouse. Mice were boosted with the designed doses for every 3 weeks intervals. Blood was collected weekly for monitoring antibody titers. After 2 weeks of the third time immunization (3Y), mice were challenged with 10^5 per mouse 4T1 (FIG. 4A). After tumor challenge, the positive control group, we treat the mice with anti-mouse CTLA-4 antibody (clone 9H10) twice a week for up to three weeks, and the negative control group was treated with PBS. Tumor volume was calculated as: Tumor volume (LWW)=(Length×Width×Width)/2
(§1) Mice challenged with tumor cells were monitored at least twice per week and tumor sizes were measured by calipers. Formula: Volume (LWW)=(Length×Width×Width)/2 was used to calculate tumor volumes. […] Data statistical analysis was performed by GraphPad Prism 8.1.2 (GraphPad Software, Inc. San Diego, CA, USA) and the indicated statistical analysis. One-way analysis of variance (one-way ANOVA) and followed by the Tukey's multiple comparisons test were used to compare data in multiple groups or data between groups in multiple groups. And the two-way ANOVA was used to analysis the whole curves comparison. The Log-rank (Mantel-Cox) test was use to compare the survival curves. P value or adjusted p value less than 0.05 was accepted as statistically significant different.

CT26 colon carcinoma = experiment: CTLA-4 peptide vaccines in CT26-BALB/c tumor model
Procedure: (§2) 6-8 weeks old BALB/c mice were vaccinated with MVF-CTLA-4 (59), MVF-CTLA-4 (75), MVF-CTLA-4 (92) or MVF-CTLA-4 (130) for 3 weeks interval. 0.1 mg peptide cancer vaccine mixed with ISA 720 (1:1) used per mouse. Mice were boosted with the designed doses for every 3 weeks intervals. Blood was collected weekly for monitoring antibody titers.
After 2 weeks of the third time immunization (3Y), mice were challenged with 10^5 per mouse CT26 (FIG. 3A). After tumor challenge, the positive control group, we treat the mice with anti-mouse CTLA-4 antibody (clone 9H10) twice a week for up to three weeks, and the negative control group was treated with PBS. Tumor volume was calculated as: Tumor volume (LWW)=(Length×Width×Width)/2. Mean value of tumor growths in BALB/c mice were vaccinated with MVF-CTLA-4 (59), MVF-CTLA-4 (75), MVF-CTLA-4 (92) or MVF-CTLA-4 (130), PBS as negative control and anti-mouse CTLA-4 antibody (clone 9H10) as positive control. […] Individual mouse CT26 tumor growths in each group of mice were vaccinated with MVF-CTLA-4 (59), MVF-CTLA-4 (75), MVF-CTLA-4 (92) or MVF-CTLA-4 (130), PBS as negative control and anti-mouse CTLA-4 antibody (clone 9H10) as positive control (FIG. 3C).
as §1

D2F2 mammary tumor cells = experiment: CTLA-4 peptide vaccines in D2F2-BALB/c tumor model; conditions: for survival versus PBS group (Log-rank test): D2F2
Procedure: as §2, with “mouse (FIG. 5A).” for “mouse.”, “titers. After 2 weeks of the third time immunization (3Y), mice were challenged with 2×10^5 per mouse D2F2 mammary tumor cells.” for “titers.”
After tumor challenge, the positive control group, we treat the mice with anti-mouse CTLA-4 antibody (clone 9H10) twice a week for up to three weeks, and the negative control group was treated with PBS. Tumor volume was calculated as: Tumor volume (LWW)=(Length×Width×Width)/2.
as §1

CT26 tumor cells = experiment: CTLA-4 peptide mimics in CT26-BALB/c tumor model (V32); conditions: CT26, 200 ug peptide mimic from day 1, Day 14
Procedure: 6-8 weeks old BALB/c mice were challenged with 1×10^5 per mouse CT26 tumor cells (FIG. 6A). After tumor challenge, the positive control group, we treat the mice with anti-mouse CTLA-4 antibody (clone 9H10) twice a week, start from day 1 post tumor challenge and the negative control group was treated with PBS. For the CTLA-4 peptide mimic treatment groups, mice were treated with 200 ug peptide mimics as indicated start from day 1 post tumor challenging. All the mice had been treated at day 1, day 2, day 5, day 7, day 9, day 12, day 14, and day 16 post tumor challenge. The immunogenicity (antibody titer) was under detectable. Tumor volume was calculated as: Tumor volume (LWW)=(Length×Width×Width)/2
as §1, with “P value or adjusted p value less than 0.05 was accepted as statistically significant different.” left out

KLLSLIKGVIVHRLEGVEGPSLEYASPGKATEVRVTVLRQA-CONH2 (KLLSLIKGVIVHRLEGVEGPSLEYASPGKATEVRVTVLRQA-NH2; not fully specified; printed as KLLSLIKGVIVHRLEGVEGPSLEYASPGKATEVRVTVLRQA-CONH2) [MVF-CTLA-4 (59)]
survival versus PBS group (Log-rank test) (4T1 breast cancer cells): significant longer survival | tumor volume LWW versus PBS group (4T1 breast cancer cells; 4T1, day 14): significant smaller tumor size | tumor volume LWW versus PBS group (4T1 breast cancer cells; 4T1, day 14, listed as CTLA-4 (59)): significantly smaller tumor size | tumor volume LWW versus PBS group (4T1 breast cancer cells; 4T1, day 16): significant smaller tumor size | tumor volume LWW versus PBS group (4T1 breast cancer cells; 4T1, day 16, listed as CTLA-4 (59)): significantly smaller tumor size | tumor volume LWW versus PBS group (CT26 colon carcinoma; CT26, day 14): significant smaller tumor size | tumor volume LWW versus PBS group (CT26 colon carcinoma; CT26, day 14, listed as CTLA-4 (59)): significantly smaller tumor size | tumor volume LWW versus PBS group (CT26 colon carcinoma; CT26, day 16): significant smaller tumor size | tumor volume LWW versus PBS group (CT26 colon carcinoma; CT26, day 16, listed as CTLA-4 (59)): significantly smaller tumor size | survival versus PBS group (Log-rank test) (D2F2 mammary tumor cells): significant different longer survival | tumor volume LWW versus PBS group (D2F2 mammary tumor cells; D2F2, day 14): significantly smaller tumor size | tumor volume LWW versus PBS group (D2F2 mammary tumor cells; D2F2, day 16): significantly smaller tumor size | tumor volume LWW versus PBS group (D2F2 mammary tumor cells; D2F2, day 19): significantly smaller tumor size | tumor volume LWW versus PBS group (D2F2 mammary tumor cells; D2F2, day 21): significantly smaller tumor size

H2N-YIQTGNGIGLYYPPPYMLEVK-CONH2 (H-[dY][dI][dQ][dT]G[dN]G[dI]G[dL][dY][dY][dP][dP][dP][dY][dM][dL][dE][dV][dK]-NH2; also: retro-inverso) [CTLA-4 (9) RIL (150-130)]
tumor volume, between groups comparison vs PBS (p or words) (CT26 tumor cells): < 0.05

KLLSLIKGVIVHRLEGVEGPSLRQADSQVTEVCAATYMMG-CONH2 (KLLSLIKGVIVHRLEGVEGPSLRQADSQVTEVCAATYMMG-NH2; not fully specified; printed as KLLSLIKGVIVHRLEGVEGPSLRQADSQVTEVCAATYMMG-CONH2) [MVF-CTLA-4 (75)]
survival versus PBS group (Log-rank test) (4T1 breast cancer cells): significant longer survival | tumor volume LWW versus PBS group (4T1 breast cancer cells; 4T1, day 14): significant smaller tumor size | tumor volume LWW versus PBS group (4T1 breast cancer cells; 4T1, day 14, listed as CTLA-4 (75)): significantly smaller tumor size | tumor volume LWW versus PBS group (4T1 breast cancer cells; 4T1, day 16): significant smaller tumor size | tumor volume LWW versus PBS group (4T1 breast cancer cells; 4T1, day 16, listed as CTLA-4 (75)): significantly smaller tumor size | tumor volume LWW versus PBS group (D2F2 mammary tumor cells; D2F2, day 14): significantly smaller tumor size | tumor volume LWW versus PBS group (D2F2 mammary tumor cells; D2F2, day 16): significantly smaller tumor size | tumor volume LWW versus PBS group (D2F2 mammary tumor cells; D2F2, day 19): significantly smaller tumor size | tumor volume LWW versus PBS group (D2F2 mammary tumor cells; D2F2, day 21): significantly smaller tumor size

KLLSLIKGVIVHRLEGVE-GPSL-KVELMYPPPYYLGIGNGTQIY-CONH2 (KLLSLIKGVIVHRLEGVEGPSLKVELMYPPPYYLGIGNGTQIY-NH2; not fully specified; printed as KLLSLIKGVIVHRLEGVE-GPSL-KVELMYPPPYYLGIGNGTQIY-CONH2) [MVF-CTLA-4 (130)]
tumor volume LWW versus PBS group (4T1 breast cancer cells; 4T1, day 14): significant smaller tumor size | tumor volume LWW versus PBS group (4T1 breast cancer cells; 4T1, day 14, listed as CTLA-4 (130)): significantly smaller tumor size | tumor volume LWW versus PBS group (CT26 colon carcinoma; CT26, day 14): significant smaller tumor size | tumor volume LWW versus PBS group (CT26 colon carcinoma; CT26, day 14, listed as CTLA-4 (130)): significantly smaller tumor size | tumor volume LWW versus PBS group (CT26 colon carcinoma; CT26, day 16): significant smaller tumor size | tumor volume LWW versus PBS group (CT26 colon carcinoma; CT26, day 16, listed as CTLA-4 (130)): significantly smaller tumor size | survival versus PBS group (Log-rank test) (D2F2 mammary tumor cells): significant different longer survival | tumor volume LWW versus PBS group (D2F2 mammary tumor cells; D2F2, day 14): significantly smaller tumor size | tumor volume LWW versus PBS group (D2F2 mammary tumor cells; D2F2, day 16): significantly smaller tumor size | tumor volume LWW versus PBS group (D2F2 mammary tumor cells; D2F2, day 19): significantly smaller tumor size | tumor volume LWW versus PBS group (D2F2 mammary tumor cells; D2F2, day 21): significantly smaller tumor size

B1: KLLSLIKGVIVHRLEGVEGPSLGNELTFLDDSICTGTSSGNQVNFHMSVVRARRNDSGTYL-CONH2 (peptide)
chain: KLLSLIKGVIVHRLEGVEGPSLGNELTFLDDSICTGTSSGNQVNFHMSVVRARRNDSGTYL-NH2
modifications: not fully specified; printed as KLLSLIKGVIVHRLEGVEGPSLGNELTFLDDSICTGTSSGNQVNFHMSVVRARRNDSGTYL-CONH2
tumor volume LWW versus PBS group (4T1 breast cancer cells; 4T1, day 16): significant smaller tumor size | tumor volume LWW versus PBS group (4T1 breast cancer cells; 4T1, day 16, listed as CTLA-4 (92)): significantly smaller tumor size | tumor volume LWW versus PBS group (CT26 colon carcinoma; CT26, day 14): significant smaller tumor size | tumor volume LWW versus PBS group (CT26 colon carcinoma; CT26, day 14, listed as CTLA-4 (92)): significantly smaller tumor size | tumor volume LWW versus PBS group (CT26 colon carcinoma; CT26, day 16): significant smaller tumor size | tumor volume LWW versus PBS group (CT26 colon carcinoma; CT26, day 16, listed as CTLA-4 (92)): significantly smaller tumor size | tumor volume LWW versus PBS group (D2F2 mammary tumor cells; D2F2, day 14): without difference | tumor volume LWW versus PBS group (D2F2 mammary tumor cells; D2F2, day 16): significantly smaller tumor size | tumor volume LWW versus PBS group (D2F2 mammary tumor cells; D2F2, day 19): significantly smaller tumor size | tumor volume LWW versus PBS group (D2F2 mammary tumor cells; D2F2, day 21): significantly smaller tumor size
